The data set can be described thus: Comparison of solubility of derivatives in water. Format: physicochemical. The note with it: shaken vigorously every 5 minutes for 30 seconds until clear. As to the method:
Then the solution was shaken vigorously every 5 minutes for 30 seconds. After 30 minutes, the solution was turbid. Another 1.5 mL of water was added and the solution was shaken vigorously every 5 minutes for 30 seconds, and the solution became clear until 9 mL of water was totally added.
24.2 mg of the cholesterol derivative of the mEG7-OH prepared in Example 9 was dispersed in 50 mL of water, and 5 mL of the mixture was taken out and added with 1.5 mL of water. Then the solution was shaken vigorously every 5 minutes for 30 seconds. After 30 minutes, the solution became turbid. Another 5 mL of water was added and the solution was shaken vigorously every 5 minutes for 30 seconds until 25 mL of water was totally added. 5 mL of the solution was taken out from the diluted solution and operated similarly, and the solution became clear until 10 mL of water was added.
111.0 mg of the hexadecanol derivative of the ((mEG3)2-N—C3H6)2—N—C3H6—OH prepared in Example 8 was dispersed in 50 μL of water, and shaken vigorously every 5 minutes for 30 seconds. After 30 minutes, the solution became clear. Another 50 μL of water was added and the solution was shaken vigorously every 5 minutes for 30 seconds, and the solution was still clear until 1.025 mL of water was added.
112.9 mg of the hexadecanol derivative of the mEG7-OH prepared in Example 9 was dispersed in 50 μL of water, and shaken vigorously every 5 minutes for 30 seconds. After 30 minutes, the solution was turbid. Another 50 μL of water was added and the solution was shaken vigorously every 5 minutes for 30 seconds, and the solution became clear until 250 μL of water was added.
After 30 minutes, the solution was clear. Another 50 μL of water was added and the solution was shaken vigorously every 5 minutes for 30 seconds, and the solution was still clear until 1.025 mL of water was added.
After 30 minutes, the solution was turbid. Another 50 μL of water was added and the solution was shaken vigorously every 5 minutes for 30 seconds. After 30 minutes, the solution became clear.

Results on three molecules are retold here after patent US11053185B2, “Dendritic polyethylene glycol derivative, and preparation method and application thereof” (JENKEM TECHNOLOGY CO., LTD. (TIANJIN), priority 2017, dated 2021).

`CC1CCC(C(C)C)C(O)C1` (stereo not drawn) [Menthol, menthol]: the Solubility in water result was “Less than 100 mg/ mg/100 g H2O”. The Solubility in water result (listed as menthol) is recorded as “less than 100 mg/100 g H2O”.

In the case of `CC(C)CCC[C@@H](C)[C@H]1CC[C@H]2[C@@H]3CC=C4C[C@@H](O)CC[C@]4(C)[C@H]3CC[C@]12C` [Cholesterol, cholesterol], the Solubility in water entry is recorded as “Less than 0.2 mg/ mg/100 g H2O”. The Solubility in water entry (listed as cholesterol) is given as “less than 0.2 mg/100 g H2O”.

For `CCCCCCCCCCCCCCCCO` [Hexadecanol, hexadecanol], the Solubility in water entry is listed as “Less than 1 mg/ mg/100 g H2O”. Moreover, for the setting “listed as hexadecanol”, the Solubility in water entry is given as “less than 1 mg/100 g H2O”.
